Laboratory results published in patent US20250154212A1, “METHOD OF DISRUPTING MEMORY AND LIPOPEPTIDE FOR USE IN SUCH METHOD” (The Research Foundation for The State University of New York, priority 2023, published 2025).
“Also recorded” adds a separate entry of the source. Where no end group is shown, it is not given here. The star is where a group is joined. Myristoyl = CCCCCCCCCCCCCC(=O)*

Tested on: spatial long-term memory
Assay: Active place avoidance, intrahippocampal injection, wild-type mice
Assay type: in vivo, mouse
Settings: for spatial memory retention (time to first enter shock zone), 3-day memory: 5 nmol in 0.5 μl per hippocampus 1 day after conditioning; for learning and retention of a new memory (place avoidance in Context B): conditioned 2 days after injection, retention 3 days later
Protocol: For spatial long-term memory experiments, we adapted the approach used in Garcia-Osta et al. (82). Mice were ˜12-weeks old at surgery. Briefly, to implant the injection cannula hardware, mice were anesthetized by an intraperitoneal (i.p.) injection of a mixture of dexmedetomidine ([…] body weight) and ketamine (28 mg/kg body weight), and mounted in a Kopf stereotaxic frame (Tujunga, CA). The tips of guide cannula (Plastics One, Roanoke, VA; Part Numbers: C235GS-5-2.0) were targeted above the injection target in the dorsal hippocampus (AP-1.94 mm; ML±1.00 mm; DV-0.90 mm). The other injection hardware (Part Numbers: C235DCs-5, 303DC/1; cannula dummy, cannula cap, respectively) was assembled, and antisedan (0.65 mg/kg body weight i.p.) was administered to reverse the sedation at the end of surgery.
Three to four weeks after surgery, the animals received active place avoidance training. Before testing the effect of the drug injection on place avoidance, the animals received a bilateral injection of vehicle (PBS [pH 7.4] 0.5 μl/side) and were left in the home cage to habituate to the procedure. Depending on the experimental design, injection of vehicle or drug, either ζ-stat or K-ZAP (5 nmol in 0.5 μl PBS/side), is 1 day or 4 weeks after the training session. During the injection, the animals were restrained, the cannula cap and dummy removed, and the injection needle (Plastics One, Roanoke, VA; Part Numbers: C235IS-5) inserted into the guide cannula so that it protruded from the end of the guide by 0.5 mm. The other end of the needle was connected to a 10 μl Hamilton syringe via Tygon tubing. The drug or vehicle was infused for 1 min, and after the infusion the needle was left in place for 5 min before removal. The animals were then returned to their home cages until the memory retention tests that were conducted 2 days later.
Active place avoidance was conducted with a commercial computer-controlled system (Bio-Signal Group, Acton, MA). The mouse was placed on a 40-cm diameter circular arena rotating at 1 rpm. The specialized software, Tracker (Bio-Signal Group, Acton, MA), was used to detect the animal's position 30 times per second by video tracking from an overhead camera. A clear wall made from polyethylene terephthalate glycol-modified (PET-G) was placed on the arena to prevent the animal from jumping off the elevated arena surface. A 5-pole shock grid was placed on the rotating arena, and the shock was scrambled across the 5-poles when the mouse entered the shock zone. All experiments used the “Room+Arena−” task variant that challenges the mouse on the rotating arena to avoid a shock zone that was a stationary 60° sector (7). Every 33 ms, the software determined the mouse's position, whether it was in the shock zone, and whether to deliver shock. After the animal enters the shock zone for 500 ms, a constant current foot-shock (60 Hz, 500 ms) was delivered and repeated with the interval of 1500 ms until the mouse left the shock zone. The shock intensity was 0.2 or 0.3 mA, which was the minimum amplitude to elicit flinch or escape responses. The animal was forced to actively avoid the designated shock zone because the arena rotation periodically transported it into the shock area.
The tracked animal positions with timestamps were analyzed offline (TrackAnalysis, Bio-Signal Group, Acton, MA) to extract several end-point measures. The time to first enter the shock zone estimates ability to avoid shock and was taken as an index of between-session memory. The number of entrances within one trial was taken as another index to examine the animal learning curve throughout all training trials. A pretraining habituation period on the apparatus equivalent in time to a training session, but without shock, was provided.
The training schedule was as follows: 2 h after a 30-min pretraining habituation, the animals received three 30-min training trials, with an intertrial interval of 2 h. […]

Compound | spatial memory retention (time to first enter shock zone), 3-day memory (tested 2 days post-injection) | spatial memory retention (time to first enter shock zone), 3-day memory (tested 2 days post-injection, listed as z-stat) | learning and retention of a new memory (place avoidance in Context B) | learning and retention of a new memory (place avoidance in Context B) (listed as z-stat) | remote spatial memory retention, 30-day memory (5 nmol in 0.5 μl/side injected 4 weeks after training, tested 2 days post-injection)
O=S(=O)(O)c1cc(O)c2c(S(=O)(=O)O)cc(S(=O)(=O)O)cc2c1 [ζ-stat, 1-naphthol-3,6,8-trisulphonic acid] | persistent loss of retention | disrupts spatial memory retention; also recorded: disrupt memory retention for the established memory | learn to avoid and remember a new second location as well as the mice that had received only vehicle | do not disrupt learning or retention of a new memory | –
myr-N-FVRNSLERRSVRMKRPS-C (Myristoyl-FVRNSLERRSVRMKRPS) [K-ZAP] | disrupts established spatial long-term memory retention; also recorded: loss of memory retention | – | – | – | disrupts remote spatial memory; also recorded: loss of memory retention 30 days post-training
